Test results taken from PubChem BioAssay AID256 (DTP/NCI, 2004).
Values joined by “and” are separate entries in the source; they are usually repeats but may differ in a detail not shown here. Identical values can stand only once. Toxic doses and inconclusive results are not listed.

Tested on: CD2F1 mice, L1210 leukemia ip, survival T/C
Experiment: NCI In Vivo Anticancer Drug Screen. Data for tumor model L1210 Leukemia (intraperitoneal) in CD2F1 (CDF1) mice
Settings: endpoint: mean survival time, higher = longer survival
Procedure, shortened: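 Activity against a transplanted murine tumor was judged by comparing the compound group with a vehicle group. The outcome in the treated animals was divided by that in the controls.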

[1] = dose: 100.0 mg/kg/injection, schedule: Q01DX001 (ip), vehicle: saline with Tween-80
[2] = dose: 100.0 mg/kg/injection, schedule: Q01DX009 (ip), vehicle: Klucel (hydroxypropylcellulose) (HPC)
[3] = dose: 200.0 mg/kg/injection, schedule: Q01DX001 (ip), vehicle: saline with Tween-80
[4] = dose: 200.0 mg/kg/injection, schedule: Q01DX009 (ip), vehicle: Klucel (hydroxypropylcellulose) (HPC)
[5] = dose: 400.0 mg/kg/injection, schedule: Q01DX001 (ip), vehicle: saline with Tween-80
[6] = dose: 400.0 mg/kg/injection, schedule: Q01DX009 (ip), vehicle: Klucel (hydroxypropylcellulose) (HPC)
[7] = dose: 100.0 mg/kg/injection, schedule: Q01DX009 (ip), vehicle: saline with Tween-80
[8] = dose: 200.0 mg/kg/injection, schedule: Q01DX009 (ip), vehicle: saline with Tween-80
[9] = dose: 400.0 mg/kg/injection, schedule: Q01DX009 (ip), vehicle: saline with Tween-80
[10] = dose: 100.0 mg/kg/injection, schedule: Q04DX002 (ip), vehicle: saline with Tween-80
[11] = dose: 200.0 mg/kg/injection, schedule: Q04DX002 (ip), vehicle: saline with Tween-80
[12] = dose: 100.0 mg/kg/injection, schedule: Q04DX003 (ip), vehicle: saline with Tween-80
[13] = dose: 200.0 mg/kg/injection, schedule: Q04DX003 (ip), vehicle: saline with Tween-80
[14] = dose: 25.0 mg/kg/injection, schedule: Q01DX009 (ip), vehicle: saline with Tween-80
[15] = dose: 50.0 mg/kg/injection, schedule: Q01DX009 (ip), vehicle: saline with Tween-80
[16] = dose: 50.0 mg/kg/injection, schedule: Q04DX002 (ip), vehicle: saline with Tween-80
[17] = dose: 12.5 mg/kg/injection, schedule: Q04DX002 (ip), vehicle: saline with Tween-80
[18] = dose: 25.0 mg/kg/injection, schedule: Q04DX002 (ip), vehicle: saline with Tween-80
[19] = dose: 400.0 mg/kg/injection, schedule: Q04DX003 (ip), vehicle: saline with Tween-80

Cc1ccc(CNC2=C(Cl)C(=O)c3ccccc3C2=O)cc1
T/C (dose: 6.25 mg/kg/injection, schedule: Q04DX003 (ip), vehicle: saline with Tween-80): 95 % of control | T/C (dose: 12.5 mg/kg/injection, schedule: Q04DX003 (ip), vehicle: saline with Tween-80): 98 % of control | T/C (dose: 25.0 mg/kg/injection, schedule: Q04DX003 (ip), vehicle: saline with Tween-80): 94 % of control and 97 % of control

C=CCOP(=O)(OCC=C)C(Cl)(Cl)Cl
T/C (dose: 75.0 mg/kg/injection, schedule: Q01DX001 (ip), vehicle: other): 109 % of control | T/C (dose: 150.0 mg/kg/injection, schedule: Q01DX001 (ip), vehicle: other): 97 % of control | T/C (dose: 300.0 mg/kg/injection, schedule: Q01DX001 (ip), vehicle: other): 109 % of control

CCOC(=O)C(=O)Nc1c(C)noc1N
T/C [1]: 109 % of control | T/C [2]: 93 % of control | T/C [3]: 104 % of control | T/C [4]: 93 % of control | T/C [5]: 97 % of control | T/C [6]: 91 % of control

Cc1ccc(-c2nc3ncnc(N)c3[nH]2)cc1[N+](=O)[O-]
T/C (dose: 37.5 mg/kg/injection, schedule: Q01DX001 (ip), vehicle: saline with Tween-80): 101 % of control | T/C (dose: 75.0 mg/kg/injection, schedule: Q01DX001 (ip), vehicle: saline with Tween-80): 90 % of control | T/C (dose: 150.0 mg/kg/injection, schedule: Q01DX001 (ip), vehicle: saline with Tween-80): 88 % of control

O=C(O)C1CC2C(=O)CCCCCCC2C1O (stereo not given)
T/C [1]: 93 % of control | T/C [7]: 98 % of control | T/C [3]: 98 % of control | T/C [8]: 93 % of control | T/C [5]: 91 % of control | T/C [9]: 96 % of control

CCC(c1ccc2cc(OC)ccc2c1)C(CC(=O)O)C(=O)OC (stereo not given)
T/C [2]: 98 % of control | T/C [4]: 98 % of control | T/C [6]: 100 % of control

O/N=C/C(O)(c1ccccc1)c1ccccc1
T/C [10]: 107 % of control | T/C [11]: 100 % of control

C/C(C#N)=C/c1ccccc1
T/C (dose: 50.0 mg/kg/injection, schedule: Q01DX009 (ip), vehicle: saline sonified): 108 % of control | T/C (dose: 100.0 mg/kg/injection, schedule: Q01DX009 (ip), vehicle: saline sonified): 105 % of control | T/C [12]: 100 % of control | T/C (dose: 200.0 mg/kg/injection, schedule: Q01DX009 (ip), vehicle: saline sonified): 105 % of control | T/C [13]: 105 % of control

CN(N=O)C(=O)NC1C(CO)OC(n2ccc(N)nc2=O)C1O (stereo not given)
T/C (dose: 12.5 mg/kg/injection, schedule: Q01DX001 (ip), vehicle: saline with Tween-80): 101 % of control | T/C (dose: 25.0 mg/kg/injection, schedule: Q01DX001 (ip), vehicle: saline with Tween-80): 110 % of control | T/C (dose: 50.0 mg/kg/injection, schedule: Q01DX001 (ip), vehicle: saline with Tween-80): 98 % of control | T/C [1]: 98 % of control | T/C [3]: 103 % of control | T/C [5]: 108 % of control

C=C1C(=O)OC2CC3(C)CCCC(C)C34OC4C12 (stereo not given)
T/C (dose: 50.0 mg/kg/injection, schedule: Q04DX002 (ip), vehicle: saline): 90 % of control | T/C (dose: 100.0 mg/kg/injection, schedule: Q04DX002 (ip), vehicle: saline): 98 % of control | T/C (dose: 200.0 mg/kg/injection, schedule: Q04DX002 (ip), vehicle: saline): 114 % of control

CC1(c2ccc(Cl)cc2)OC(=O)C(=Cc2ccc([N+](=O)[O-])s2)C(=O)O1 (stereo not given)
T/C (dose: 6.25 mg/kg/injection, schedule: Q01DX009 (ip), vehicle: saline with Tween-80): 101 % of control | T/C (dose: 12.5 mg/kg/injection, schedule: Q01DX009 (ip), vehicle: saline with Tween-80): 98 % of control and 101 % of control | T/C [14]: 96 % of control and 100 % of control | T/C [15]: 100 % of control and 101 % of control | T/C [7]: 102 % of control and 112 % of control | T/C [8]: 97 % of control

OCC1C2C=CC(c3ccccc32)C1CO (stereo not given)
T/C [16]: 106 % of control | T/C [10]: 88 % of control | T/C [11]: 95 % of control

c1ccc2c(c1)ccn2CCCCn1ccc2ccccc21
T/C [15]: 101 % of control | T/C [7]: 101 % of control | T/C [8]: 101 % of control

O=S1(=O)CC23CC=CCC2(CC=CC3)C1 (stereo not given)
T/C (dose: 100.0 mg/kg/injection, schedule: Q04DX003 (ip), vehicle: other): 100 % of control | T/C (dose: 200.0 mg/kg/injection, schedule: Q04DX003 (ip), vehicle: other): 102 % of control

CCn1c(=N)sc2ccc(C(=O)OC)cc21
T/C [17]: 101 % of control | T/C [18]: 96 % of control | T/C [16]: 90 % of control | T/C [13]: 88 % of control

Nc1nc(N)c2nc(CNc3ccc(C(=O)NC(CC(=O)O)C(=O)O)cc3)cnc2n1 (stereo not given)
T/C (dose: 6.25 mg/kg/injection, schedule: Q01DX001 (ip), vehicle: saline): 101 % of control | T/C (dose: 12.5 mg/kg/injection, schedule: Q01DX001 (ip), vehicle: saline): 98 % of control | T/C (dose: 25.0 mg/kg/injection, schedule: Q01DX001 (ip), vehicle: saline): 107 % of control | T/C (dose: 50.0 mg/kg/injection, schedule: Q01DX001 (ip), vehicle: saline): 104 % of control | T/C (dose: 100.0 mg/kg/injection, schedule: Q01DX001 (ip), vehicle: saline): 104 % of control | T/C (dose: 200.0 mg/kg/injection, schedule: Q01DX001 (ip), vehicle: saline): 117 % of control

COc1ccccc1C(=O)NS(=O)(=O)c1ccc(Cl)cc1
T/C (dose: 100.0 mg/kg/injection, schedule: Q01DX009 (ip), vehicle: acetone): 101 % of control | T/C (dose: 200.0 mg/kg/injection, schedule: Q01DX009 (ip), vehicle: acetone): 107 % of control

[CH3][Sb]([CH3])([CH3])([O]C(=O)CF)[O]C(=O)CF
T/C (dose: 1.25 mg/kg/injection, schedule: Q01DX009 (ip), vehicle: saline): 102 % of control | T/C (dose: 2.5 mg/kg/injection, schedule: Q01DX009 (ip), vehicle: saline): 100 % of control | T/C (dose: 5.0 mg/kg/injection, schedule: Q01DX009 (ip), vehicle: saline): 106 % of control

NC(N)=N/N=C/c1c(O)ccc2ccccc12
T/C (dose: 31.25 mg/kg/injection, schedule: Q01DX010 (oral), vehicle: saline): 102 % of control | T/C (dose: 62.5 mg/kg/injection, schedule: Q01DX010 (oral), vehicle: saline): 108 % of control | T/C (dose: 125.0 mg/kg/injection, schedule: Q01DX010 (oral), vehicle: saline): 101 % of control

OC(CCCCl)CC(O)(C(F)(F)F)C(F)(F)F (stereo not given)
T/C [7]: 102 % of control | T/C [12]: 108 % of control | T/C [8]: 94 % of control | T/C [13]: 89 % of control | T/C [9]: 86 % of control | T/C [19]: 94 % of control

COC1=CC(=O)C=C(OC(C)=O)C12Oc1c(Cl)c(C)c(Cl)c(O)c1C2=O (stereo not given)
T/C (dose: 6.25 mg/kg/injection, schedule: Q04DX002 (ip), vehicle: saline with Tween-80): 105 % of control | T/C [17]: 98 % of control | T/C [18]: 102 % of control

CN(CCN1CCCCC1)C(=O)C(O)(c1ccccc1)c1ccccc1
T/C (dose: 75.0 mg/kg/injection, schedule: Q01DX001 (ip), vehicle: saline): 104 % of control | T/C (dose: 150.0 mg/kg/injection, schedule: Q01DX001 (ip), vehicle: saline): 98 % of control

O=C(O)Cc1ccc(Br)cc1[N+](=O)[O-]
T/C (dose: 100.0 mg/kg/injection, schedule: Q01DX001 (ip), vehicle: other): 104 % of control | T/C (dose: 200.0 mg/kg/injection, schedule: Q01DX001 (ip), vehicle: other): 101 % of control | T/C (dose: 400.0 mg/kg/injection, schedule: Q01DX001 (ip), vehicle: other): 98 % of control

CC(=O)c1cccc(N=NN(C)C)c1
T/C (dose: 46.0 mg/kg/injection, schedule: Q01DX009 (ip), vehicle: Klucel (hydroxypropylcellulose) (HPC)): 124 % of control | T/C (dose: 69.0 mg/kg/injection, schedule: Q01DX009 (ip), vehicle: Klucel (hydroxypropylcellulose) (HPC)): 154 % of control | T/C (dose: 158.0 mg/kg/injection, schedule: Q01DX009 (ip), vehicle: Klucel (hydroxypropylcellulose) (HPC)): 87 % of control and 107 % of control

O=C(O)C1C(c2ccccc2)=C(c2ccccc2)c2ccccc21 (stereo not given)
T/C [14]: 94 % of control | T/C [15]: 93 % of control | T/C [7]: 98 % of control

Cc1cccc(C)c1NC(=S)N1CCC(CCCC2CCN(C(=S)Nc3c(C)cccc3C)CC2)CC1
T/C [12]: 105 % of control | T/C [13]: 96 % of control | T/C [19]: 96 % of control
